The values that follow come from patent publication US20240228446A1, “PREPARATION METHOD FOR BICYCLIC COMPOUND AND APPLICATION AS ANTIFUNGAL AGENT” (priority 2021, published 2024).

The nature of data set [1]: Drug-drug interaction / pharmacokinetic study of single drug and combination with nifedipine by gavage. The conditions noted are these: CD1 mice, ketoconazole 30 mg/kg alone vs ketoconazole 30 mg/kg + nifedipine 15 mg/kg.
Experimental: The dosing solution was prepared on the day of administration. An appropriate amount of nifedipine was precisely weighed into a centrifuge tube, then an appropriate volume of 0.5% MC was added thereto and vortexed to dissolve, resulting in a dosing solution with a concentration of 1.5 mg/mL.
Appropriate amounts of ketoconazole and isavuconazonium sulfate (CAS #946075-13-4) were precisely weighed and placed into separate centrifuge tubes. An appropriate volume of 0.5% MC was added to each tube and vortexed to dissolve, resulting in dosing solutions with concentrations of 3 mg/mL and 12 mg/mL, respectively.
An appropriate amount of the compound of the example of the present disclosure was precisely weighed into a centrifuge tube, then an appropriate volume of 16% SBECD was added thereto and vortexed to dissolve, resulting in a dosing solution with a concentration of 10 mg/mL.
CD1 mice, 6 to 8 weeks old, male, were divided into seven groups. […]
Data set [2] relates to Candida albicans ATCC MYA-2876. Nature of the data set: Minimal inhibitory concentration (MIC) test on fungal growth (CLSI M27, yeasts). The class given is cell-based. To be noted: for MIC: Candida albicans, read-out: MIC Candida albicans ATCC MYA-2876. In short, it runs like this: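 Broth microdilution followed CLSI M27 in RPMI1640 buffered with 0.165 M MOPS, pH 7.0, with a final inoculum of 500–2500 CFU/mL. Eleven 2-fold compound concentrations were tested, and plates were incubated 24 h at 35 °C. MIC was the lowest concentration giving 50% growth inhibition, read visually with optional OD530 assistance.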

The test system of data set [3] is Aspergillus fumigatus ATCC MYA-4609. Briefly: Minimal inhibitory concentration (MIC) test on fungal growth (CLSI M38, Aspergillus). The class given is cell-based. The conditions noted are these: for MIC: Aspergillus fumigatus, read-out: MIC Aspergillus fumigatus ATCC MYA-4609. How it is done: • RPMI1640 medium: Brand: Gibco, article number: 31800-014 • Sabouraud dextrose agar (SDA): Brand: Hope Bio, article number: HB0253-81 • Voriconazole: Brand: Adamas, article number: 22105A • Amphotericin B: Brand: AbCam, article number: ab141199
MIC test was conducted in accordance with the guidelines and requirements of CLSI M27 (for yeasts) and M38 (for Aspergillus).
Strain preparation: The strains were inoculated 1 day in advance by streaking on SDA plates with glycerol strains stored at −80° C. The strains were cultured at 35° C. and 40 to 60% humidity for 18 to 24 hours. Streak inoculation of Aspergillus fumigatus and Cryptococcus neoformans was required to be done 3 days and 2 days in advance, respectively.
Preparation of culture medium and compounds: The liquid culture medium RPMI was prepared with pure water, and 0.165 mol/L MOPS was added to adjust the pH to 7.0. The mixture was filtered with a 0.22 μm-membrane filter, sterilized, and stored at 4° C. (no more than 3 months). 0.85% physiological saline was sterilized at 121° C. for 30 min and then stored at room temperature (no more than 1 week). The compounds were dissolved in DMSO to 12.8 mg/mL and stored at −20° C.
For Aspergillus, 5 mL of physiological saline was added to cover the mycelium, and the spores were gently scraped off with a spreader. The spore suspension was then transferred to a sterile test tube. An appropriate amount of spore suspension was taken and counted under a microscope using a hemocytometer. Spore concentration was adjusted to approximately 0.4 to 5×10^4 spores/mL using RPMI1640 medium.
The compound was diluted to the highest 800 μg/mL (or 400 μg/mL) with DMSO, and a 10-step 2-fold gradient dilution was performed, resulting in 11 concentrations. 2 μL of the gradient-diluted compound was transferred to the corresponding wells of a 96-well plate, and then 198 μL of the inoculum was transferred to the test plate. The plate was incubated at 35° C. for 24 hours (Aspergillus fumigatus and Cryptococcus neoformans were incubated for 48 and 72 hours, respectively).
After the incubation, the growth of the fungi was visually observed. The lowest concentration of the compound that inhibited the growth of yeast by 50% (inhibited Aspergillus by 100%) was defined as the minimum inhibitory concentration (MIC, μg/mL). A magnifying glass or reading at OD530 nm could be used to assist in determining the MIC. Photos were taken of the test plates for record keeping.

Setting [4] is: lowest concentration inhibiting growth of yeast by 50%, 35° C., 24 hours, RPMI1640.
Where [5] appears, read: lowest concentration inhibiting Aspergillus by 100%, 35° C., 48 hours, RPMI1640.

In brackets after ≈: the same amount, converted by molar mass. Where two headings read alike, the source gives them in different places.

As to `CC(=O)N1CCN(c2ccc(OCC3COC(Cn4ccnc4)(c4ccc(Cl)cc4Cl)O3)cc2)CC1` (stereo not drawn) [ketoconazole], in data set [1], the “exposure to ketoconazole, monotherapy group vs combination therapy group” value was “not significantly different”.
For orientation: MIC means the smallest concentration in the dilution series that meets the test's criterion for growth inhibition. `OC(Cn1cnnn1)(c1ccc(F)cc1F)C(F)(F)C12CC(c3ccc(OCC(F)F)cc3)(C1)C2` (stereo not drawn) [Compound 22]: the MIC was 0.0078 µg/mL (≈ 0.0156 µM) in data set [2] (setting [4]) and 4 µg/mL (≈ 8.03 µM) in data set [3] (setting [5]).
`O[C@H](COc1ccc(C23CC(C(F)(F)[C@](O)(Cn4cncn4)c4ccc(F)cc4F)(C2)C3)cn1)C(F)(F)F` [Compound 98A]: the “MIC Candida albicans ATCC MYA-2876” value in data set [2] (setting [4]) was not above 0.0039 µg/mL. The “MIC Aspergillus fumigatus ATCC MYA-4609” value in data set [3] (setting [5]) was 1 µg/mL (≈ 1.83 µM).
On to `O[C@H](COc1ccc(C23CC(C(F)(F)C(O)(Cn4cnnn4)c4ccc(F)cc4F)(C2)C3)cc1F)C(F)(F)F` (stereo partly drawn) [Compound 134], for which the MIC in data set [2] (setting [4]) stood at 0.0078 µg/mL (≈ 0.0138 µM); in data set [3] (setting [5]) it was 4 µg/mL (≈ 7.09 µM).
On to `N#CCOc1ccc(C23CC(C(F)(F)C(O)(Cn4cnnn4)c4ccc(F)cc4F)(C2)C3)cc1` (stereo not drawn) [Compound 69], for which the MIC was 0.016 µg/mL (≈ 0.0338 µM) in data set [2] (24 h) and 4 µg/mL (≈ 8.45 µM) in data set [3] (48 h).
With `O[C@](Cn1cnnn1)(c1ccc(Cl)cc1F)C(F)(F)C12CC(c3ccc(OCC(F)(F)F)cc3)(C1)C2` [Compound 7B], the MIC in data set [2] (setting [4]) is 2 µg/mL (≈ 3.75 µM); in data set [3] (setting [5]), 1 µg/mL (≈ 1.88 µM).
As to `O[C@@H](COc1ccc(C23CC(C(F)(F)[C@](O)(Cn4cnnn4)c4ccc(F)cc4F)(C2)C3)cn1)C(F)(F)F` [Compound 97A], in data set [2] (setting [4]), the “MIC Candida albicans ATCC MYA-2876” value is not above 0.0039 µg/mL. Also, the “MIC Aspergillus fumigatus ATCC MYA-4609” value in data set [3] (setting [5]) worked out at 4 µg/mL (≈ 7.31 µM).
As to `OC(Cn1cncn1)(c1ccc(F)cc1F)C(F)(F)C12CC(c3ccc(OCC(F)(F)F)cc3)(C1)C2` (stereo not drawn) [Compound 2], the figures for the MIC in data set [2] (setting [4]) and in data set [3] (setting [5]) were 0.0078 µg/mL (≈ 0.0151 µM) and 1 µg/mL (≈ 1.94 µM), respectively.
For `O[C@@](Cn1cncn1)(c1ccc(F)cc1F)C(F)(F)C12CC(c3ccc(OCC(F)(F)F)cc3)(C1)C2` (stereo in doubt) [Compound 2A] the same measures were not above 0.0039 µg/mL and 1 µg/mL (≈ 1.94 µM).
As for `O[C@H](COc1ccc(C23CC(C[C@](O)(Cn4cncn4)c4ccc(F)cc4F)(C2)C3)cc1)C(F)(F)F` [Compound 90A], the MIC in data set [2] (setting [4]) is not above 0.0039 µg/mL; in data set [3] (setting [5]) it was 0.5 µg/mL (≈ 0.981 µM).
In the case of `O[C@H](COc1ccc(C23CC(C(F)(F)[C@@](O)(Cn4cnnn4)c4ccc(F)cc4F)(C2)C3)cn1)C(F)(F)F` [Compound 97B], the “MIC Candida albicans ATCC MYA-2876” value in data set [2] (setting [4]) was 0.0078 µg/mL (≈ 0.0142 µM). Moreover, in data set [3] (setting [5]), the “MIC Aspergillus fumigatus ATCC MYA-4609” value stood at 8 µg/mL (≈ 14.6 µM).
For the compound `CC(C)(O)COc1ccc(C23CC(C(F)(F)C(O)(Cn4cnnn4)c4ccc(F)cc4F)(C2)C3)cc1` (stereo not drawn) [Compound 36], the MIC in data set [2] (setting [4]) was not above 0.0039 µg/mL; in data set [3] (setting [5]), 8 µg/mL (≈ 15.8 µM).
As for `COC(COc1ccc(C23CC(C(F)(F)C(O)(Cn4cnnn4)c4ccc(F)cc4F)(C2)C3)cc1)C(F)(F)F` (stereo not drawn) [Compound 136], the MIC was 0.016 µg/mL (≈ 0.0285 µM) in data set [2] (setting [4]) and 4 µg/mL (≈ 7.14 µM) in data set [3] (setting [5]).
With `O[C@H](COc1ccc(C23CC(CC(O)(Cn4cncn4)c4ccc(F)cc4F)(C2)C3)cc1)C(F)(F)F` (stereo partly drawn) [Compound 90], the MIC in data set [2] (setting [4]) was not above 0.0039 µg/mL; in data set [3] (setting [5]), 0.5 µg/mL (≈ 0.981 µM).
In the same order, the values of `COCCCOc1ccc(C23CC(C(F)(F)C(O)(Cn4cnnn4)c4ccc(F)cc4F)(C2)C3)cc1` (stereo not drawn) [Compound 61] are 0.016 µg/mL (≈ 0.0316 µM) and 8 µg/mL (≈ 15.8 µM).
For `O[C@H](COc1ccc(C23CC(C(F)(F)[C@](O)(Cn4cnnn4)c4ccc(F)cc4F)(C2)C3)cc1F)C(F)(F)F` [Compound 134A] the same measures were not above 0.0039 µg/mL and 2 µg/mL (≈ 3.54 µM).
For the compound `OC(Cn1cnnn1)(c1ccc(F)cc1F)C(F)(F)C12CC(c3ccc(OC[C@H]4CCCO4)cc3)(C1)C2` (stereo partly drawn) [Compound 76], the MIC is 0.016 µg/mL (≈ 0.0309 µM) in data set [2] (24 h) and 8 µg/mL (≈ 15.4 µM) in data set [3] (48 h).
Turning to `OC(Cn1cnnn1)(c1ccc(F)cc1F)C(F)(F)C12CC(c3ccc(O[C@@H]4CCOC4)cc3)(C1)C2` (stereo partly drawn) [Compound 40], the minimal inhibitory concentration (MIC) in data set [2] (setting [4]) was not above 0.0039 µg/mL; in data set [3] (setting [5]), 16 µg/mL (≈ 31.7 µM).
For `OCC(F)(F)COc1ccc(C23CC(C(F)(F)[C@](O)(Cn4cnnn4)c4ccc(F)cc4F)(C2)C3)cc1` [Compound 50A] the same measures were 0.0078 µg/mL (≈ 0.0148 µM) and 2 µg/mL (≈ 3.78 µM).
In the same order, the values of `C[C@H](C12CC(c3ccc(OC[C@H](O)C(F)(F)F)cc3)(C1)C2)[C@](O)(Cn1cncn1)c1ccc(F)cc1F` (relative stereo) [Compound 125A] are not above 0.0039 µg/mL and 0.5 µg/mL (≈ 0.955 µM).
